Measured values as given in patent US20250248940A1, “Biopolymer Formulations for Drug Delivery” (11584022 Canada Inc., priority 2022, published 2025).

Assay: release of API into water from dried API-biopolymer pellets, measured by UV/VIS spectroscopy
Type: physicochemical
Details: from the dry biopolymer matrix, versus acetyl salicylic acid
Method: Briefly biopolymer suspensions were produced with a known quantity of API added to the suspensions. The suspensions with API were then dried as pellets. These pellets were then added to a known volume of water and aliquots of the water were removed periodically to determine the rate of release of the API. The API concentration was measured using UV/VIS spectroscopy. The sample was dried for 10 hours in air and 3 hours in the oven at 50° C. The acetaminophen concentration in dried materials was 29.58% w/w. This figure represents release of acetaminophen into water from the dried acetaminophen doped chitin suspension, where the concentration of acetaminophen, in g/L, is plotted against time, in minutes.

release rate compared between drugs: slower release
Structure (SMILES): CC(=O)Nc1ccc(O)cc1 [acetaminophen]
